Key:
PTPN2 (i.e., TC-PTP) = target: T1, PTPN2 (i.e., TC-PTP) (Homo sapiens, UniProt P17706); assay: Phosphatase activity assay (DiFMUP substrate), PTPN2; assay type: biochemical; conditions: compounds binned ≤1 uM or >1 uM
T1 sequence (P17706 1-415): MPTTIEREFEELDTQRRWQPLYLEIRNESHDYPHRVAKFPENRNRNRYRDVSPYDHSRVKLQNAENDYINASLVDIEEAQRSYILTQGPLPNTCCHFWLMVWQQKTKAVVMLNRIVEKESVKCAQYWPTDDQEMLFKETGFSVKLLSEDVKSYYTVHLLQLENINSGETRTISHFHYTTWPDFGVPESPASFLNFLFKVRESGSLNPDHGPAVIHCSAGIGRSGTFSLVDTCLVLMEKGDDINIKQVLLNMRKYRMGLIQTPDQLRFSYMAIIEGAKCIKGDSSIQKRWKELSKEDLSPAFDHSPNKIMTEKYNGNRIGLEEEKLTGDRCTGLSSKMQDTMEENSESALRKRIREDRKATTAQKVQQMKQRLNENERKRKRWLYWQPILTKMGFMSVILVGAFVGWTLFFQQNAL
Procedure, shortened: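 Using a Km-level DiFMUP substrate and 0.025 ng/ul PTPN2, phosphatase activity is tracked by DiFMU emission at 450 nm over about 15–30 minutes. Initial rates at ten inhibitor concentrations give IC50 by four-parameter fitting.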

PTPN1 (i.e., PTP1B) = target: T2, PTPN1 (i.e., PTP1B) (Homo sapiens, UniProt P18031); assay: Phosphatase activity assay (DiFMUP substrate), PTP1B; assay type: biochemical; conditions: compounds binned ≤1 uM or >1 uM
T2 sequence (P18031 1-435): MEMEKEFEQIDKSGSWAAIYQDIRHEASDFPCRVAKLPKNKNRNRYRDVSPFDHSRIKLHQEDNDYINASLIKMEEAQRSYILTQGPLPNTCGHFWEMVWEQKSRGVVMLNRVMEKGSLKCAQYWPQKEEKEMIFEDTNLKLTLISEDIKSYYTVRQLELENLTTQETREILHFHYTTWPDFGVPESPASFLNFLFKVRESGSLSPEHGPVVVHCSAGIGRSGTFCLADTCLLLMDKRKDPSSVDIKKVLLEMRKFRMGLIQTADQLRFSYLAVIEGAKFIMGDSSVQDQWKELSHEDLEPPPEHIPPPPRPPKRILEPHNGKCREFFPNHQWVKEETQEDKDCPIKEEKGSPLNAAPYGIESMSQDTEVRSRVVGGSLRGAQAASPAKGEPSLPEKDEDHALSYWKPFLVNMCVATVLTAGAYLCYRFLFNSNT
Procedure, shortened: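 RT, HEPES pH 7.5 buffer with DTT/Tween-20. 10-point inhibitor series premixed ~2 min with enzyme (PTPN2 0.025 ng/ul). Start with DiFMUP at enzyme Km (~45 μM for PTPN2). Read DiFMU ex360/em450 continuously 15–30 min; initial rate vs concentration, 4-parameter fit → IC50.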

Cc1nn(C)cc1-c1ccc(O)c(N2CC(=O)NS2(=O)=O)c1F [Compound 142, 5-(3-(1,3-dimethyl-1H-pyrazol-4-yl)-2-fluoro-6-hydroxyphenyl)-1,2,5-thiadiazolidin-3-one 1,1-dioxide]
IC50 (PTPN2 (i.e., TC-PTP)): ≤ 1 µM
IC50 (PTPN1 (i.e., PTP1B)): ≤ 1 µM

O=C1CN(c2c(O)ccc(-c3ccc(-c4ccccc4)nc3)c2F)S(=O)(=O)N1 [Compound 120, 5-(2-fluoro-6-hydroxy-3-(6-phenylpyridin-3-yl)phenyl)-1,2,5-thiadiazolidin-3-one 1,1-dioxide]
IC50 (PTPN2 (i.e., TC-PTP)): ≤ 1 µM
IC50 (PTPN1 (i.e., PTP1B)): ≤ 1 µM

N#CC1(n2cc(-c3ccc(O)c(N4CC(=O)NS4(=O)=O)c3F)cn2)CC1 [Compound 484, 1-(4-(3-(1,1-dioxido-4-oxo-1,2,5-thiadiazolidin-2-yl)-2-fluoro-4-hydroxyphenyl)-1H-pyrazol-1-yl)cyclopropane-1-carbonitrile]
IC50 (PTPN2 (i.e., TC-PTP)): ≤ 1 µM
IC50 (PTPN1 (i.e., PTP1B)): ≤ 1 µM

Cc1noc(C)c1Cn1ccc(-c2ccc(O)c(N3CC(=O)NS3(=O)=O)c2F)c1 [Compound 390, 5-(3-(1-((3,5-dimethylisoxazol-4-yl)methyl)-1H-pyrrol-3-yl)-2-fluoro-6-hydroxyphenyl)-1,2,5-thiadiazolidin-3-one 1,1-dioxide]
IC50 (PTPN2 (i.e., TC-PTP)): ≤ 1 µM
IC50 (PTPN1 (i.e., PTP1B)): ≤ 1 µM

O=C1CN(c2c(O)ccc(-c3cnn(C4CC4)c3)c2Cl)S(=O)(=O)N1 [Compound 260, 5-(2-chloro-3-(1-cyclopropyl-1H-pyrazol-4-yl)-6-hydroxyphenyl)-1,2,5-thiadiazolidin-3-one 1,1-dioxide]
IC50 (PTPN2 (i.e., TC-PTP)): ≤ 1 µM
IC50 (PTPN1 (i.e., PTP1B)): ≤ 1 µM

O=C1CN(c2c(O)ccc(-c3ccc(NS(=O)(=O)C4CC4)cc3F)c2F)S(=O)(=O)N1 [Compound 438, N-(3′-(1,1-dioxido-4-oxo-1,2,5-thiadiazolidin-2-yl)-2,2′-difluoro-4′-hydroxy-[1,1′-biphenyl]-4-yl)cyclopropanesulfonamide]
IC50 (PTPN2 (i.e., TC-PTP)): ≤ 1 µM
IC50 (PTPN1 (i.e., PTP1B)): ≤ 1 µM

CC1C(=O)NS(=O)(=O)N1c1c(O)ccc(-c2cnn(Cc3cccc(F)c3)c2)c1F (stereo not shown) [Compound 155, 5-(2-fluoro-3-(1-(3-fluorobenzyl)-1H-pyrazol-4-yl)-6-hydroxyphenyl)-4-methyl-1,2,5-thiadiazolidin-3-one 1,1-dioxide]
IC50 (PTPN2 (i.e., TC-PTP)): ≤ 1 µM
IC50 (PTPN1 (i.e., PTP1B)): ≤ 1 µM

COc1cccc(Cn2cc(-c3ccc(O)c(N4CC(=O)NS4(=O)=O)c3F)cn2)c1 [Compound 127, 5-(2-fluoro-6-hydroxy-3-(1-(3-methoxybenzyl)-1H-pyrazol-4-yl)phenyl)-1,2,5-thiadiazolidin-3-one 1,1-dioxide]
IC50 (PTPN2 (i.e., TC-PTP)): ≤ 1 µM
IC50 (PTPN1 (i.e., PTP1B)): ≤ 1 µM

O=C1CN(c2c(O)ccc(C3=CCC(NS(=O)(=O)C4CC4)CC3)c2F)S(=O)(=O)N1 (stereo not shown) [Compound 317, N-(3′-(1,1-dioxido-4-oxo-1,2,5-thiadiazolidin-2-yl)-2′-fluoro-4′-hydroxy-2,3,4,5-tetrahydro-[1,1′-biphenyl]-4-yl)cyclopropanesulfonamide]
IC50 (PTPN2 (i.e., TC-PTP)): ≤ 1 µM
IC50 (PTPN1 (i.e., PTP1B)): ≤ 1 µM

O=C1CN(c2c(O)ccc(-c3cnn(CC4(Cl)CCC4)c3)c2F)S(=O)(=O)N1 [Compound 387, 5-(3-(1-((1-chlorocyclobutyl)methyl)-1H-pyrazol-4-yl)-2-fluoro-6-hydroxyphenyl)-1,2,5-thiadiazolidin-3-one 1,1-dioxide]
IC50 (PTPN2 (i.e., TC-PTP)): ≤ 1 µM
IC50 (PTPN1 (i.e., PTP1B)): ≤ 1 µM

CC(C)CCn1cc(-c2cc(F)c(O)c(N3CC(=O)NS3(=O)=O)c2)cn1 [Compound 153, 5-(3-fluoro-2-hydroxy-5-(1-isopentyl-1H-pyrazol-4-yl)phenyl)-1,2,5-thiadiazolidin-3-one 1,1-dioxide]
IC50 (PTPN2 (i.e., TC-PTP)): > 1 µM
IC50 (PTPN1 (i.e., PTP1B)): ≤ 1 µM

O=C1CN(c2c(O)ccc(-c3cc(C4CC4(F)F)n[nH]3)c2F)S(=O)(=O)N1 (stereo not shown) [Compound 364, 5-(3-(3-(2,2-difluorocyclopropyl)-1H-pyrazol-5-yl)-2-fluoro-6-hydroxyphenyl)-1,2,5-thiadiazolidin-3-one 1,1-dioxide]
IC50 (PTPN2 (i.e., TC-PTP)): ≤ 1 µM
IC50 (PTPN1 (i.e., PTP1B)): ≤ 1 µM

O=C1CN(c2c(O)ccc(-c3cn(C4CCOCC4)cn3)c2F)S(=O)(=O)N1 [Compound 328, 5-(2-fluoro-6-hydroxy-3-(1-(tetrahydro-2H-pyran-4-yl)-1H-imidazol-4-yl)phenyl)-1,2,5-thiadiazolidin-3-one 1,1-dioxide]
IC50 (PTPN2 (i.e., TC-PTP)): ≤ 1 µM
IC50 (PTPN1 (i.e., PTP1B)): ≤ 1 µM

O=C1CN(c2c(O)ccc(-c3cnn(CCc4ccccc4)c3)c2F)S(=O)(=O)N1 [Compound 207, 5-(2-fluoro-6-hydroxy-3-(1-phenethyl-1H-pyrazol-4-yl)phenyl)-1,2,5-thiadiazolidin-3-one 1,1-dioxide]
IC50 (PTPN2 (i.e., TC-PTP)): ≤ 1 µM
IC50 (PTPN1 (i.e., PTP1B)): ≤ 1 µM

O=C1CN(c2c(O)ccc(-c3cc(C4CC4(F)F)n(CC(F)F)n3)c2F)S(=O)(=O)N1 (stereo not shown) [Compound 508, 5-(3-(5-(2,2-difluorocyclopropyl)-1-(2,2-difluoroethyl)-1H-pyrazol-3-yl)-2-fluoro-6-hydroxyphenyl)-1,2,5-thiadiazolidin-3-one 1,1-dioxide]
IC50 (PTPN2 (i.e., TC-PTP)): ≤ 1 µM
IC50 (PTPN1 (i.e., PTP1B)): ≤ 1 µM

Cn1cc(-c2ccc(O)c(N3CC(=O)NS3(=O)=O)c2F)c(C(F)(F)F)n1 [Compound 192, 5-(2-fluoro-6-hydroxy-3-(1-methyl-3-(trifluoromethyl)-1H-pyrazol-4-yl)phenyl)-1,2,5-thiadiazolidin-3-one 1,1-dioxide]
IC50 (PTPN2 (i.e., TC-PTP)): > 1 µM
IC50 (PTPN1 (i.e., PTP1B)): ≤ 1 µM

N#CC1CC1c1cc(-c2ccc(O)c(N3CC(=O)NS3(=O)=O)c2F)[nH]n1 (stereo not shown) [Compound 478, 2-(5-(3-(1,1-dioxido-4-oxo-1,2,5-thiadiazolidin-2-yl)-2-fluoro-4-hydroxyphenyl)-1H-pyrazol-3-yl)cyclopropane-1-carbonitrile]
IC50 (PTPN2 (i.e., TC-PTP)): ≤ 1 µM
IC50 (PTPN1 (i.e., PTP1B)): ≤ 1 µM

O=C1CN(c2c(O)ccc(-c3cn(-c4cc(F)ccc4F)cn3)c2F)S(=O)(=O)N1 [Compound 303, 5-(3-(1-(2,5-difluorophenyl)-1H-imidazol-4-yl)-2-fluoro-6-hydroxyphenyl)-1,2,5-thiadiazolidin-3-one 1,1-dioxide]
IC50 (PTPN2 (i.e., TC-PTP)): ≤ 1 µM
IC50 (PTPN1 (i.e., PTP1B)): ≤ 1 µM

CC(C)CCn1cc(-c2ccc(O)c(N3CC(=O)NS3(=O)=O)c2Cl)cn1 [Compound 175, 5-(2-chloro-6-hydroxy-3-(1-isopentyl-1H-pyrazol-4-yl)phenyl)-1,2,5-thiadiazolidin-3-one 1,1-dioxide]
IC50 (PTPN2 (i.e., TC-PTP)): ≤ 1 µM
IC50 (PTPN1 (i.e., PTP1B)): ≤ 1 µM

O=C1CN(c2c(O)ccc(-c3cn(C4CC4)cn3)c2F)S(=O)(=O)N1 [Compound 176, 5-(3-(1-cyclopropyl-1H-imidazol-4-yl)-2-fluoro-6-hydroxyphenyl)-1,2,5-thiadiazolidin-3-one 1,1-dioxide]
IC50 (PTPN2 (i.e., TC-PTP)): ≤ 1 µM
IC50 (PTPN1 (i.e., PTP1B)): ≤ 1 µM

CC(C)CCOC1CCCN(c2cc(O)c(N3CC(=O)NS3(=O)=O)c(F)c2)C1 (stereo not shown) [Compound 201, 5-(2-fluoro-6-hydroxy-4-(3-(isopentyloxy)piperidin-1-yl)phenyl)-1,2,5-thiadiazolidin-3-one 1,1-dioxide]
IC50 (PTPN2 (i.e., TC-PTP)): ≤ 1 µM
IC50 (PTPN1 (i.e., PTP1B)): ≤ 1 µM

NC(=O)C1CC1c1cc(-c2ccc(O)c(N3CC(=O)NS3(=O)=O)c2F)[nH]n1 (stereo not shown) [Compound 533, 2-(5-(3-(1,1-dioxido-4-oxo-1,2,5-thiadiazolidin-2-yl)-2-fluoro-4-hydroxyphenyl)-1H-pyrazol-3-yl)cyclopropane-1-carboxamide]
IC50 (PTPN2 (i.e., TC-PTP)): ≤ 1 µM
IC50 (PTPN1 (i.e., PTP1B)): ≤ 1 µM

O=C1CN(c2c(O)ccc(-c3cc(CCCC(F)(F)F)n[nH]3)c2F)S(=O)(=O)N1 [Compound 255, 5-(2-fluoro-6-hydroxy-3-(3-(4,4,4-trifluorobutyl)-1H-pyrazol-5-yl)phenyl)-1,2,5-thiadiazolidin-3-one 1,1-dioxide]
IC50 (PTPN2 (i.e., TC-PTP)): ≤ 1 µM
IC50 (PTPN1 (i.e., PTP1B)): ≤ 1 µM

O=C1CN(c2c(O)ccc(C3CCN(C4CC4)CC3)c2F)S(=O)(=O)N1 [Compound 353, 5-(3-(1-cyclopropylpiperidin-4-yl)-2-fluoro-6-hydroxyphenyl)-1,2,5-thiadiazolidin-3-one 1,1-dioxide]
IC50 (PTPN2 (i.e., TC-PTP)): ≤ 1 µM
IC50 (PTPN1 (i.e., PTP1B)): ≤ 1 µM

CN(C)C1CCN(c2cc(-c3ccc(O)c(N4CC(=O)NS4(=O)=O)c3F)[nH]n2)C1 (stereo not shown) [Compound 397, 5-(3-(3-(3-(dimethylamino)pyrrolidin-1-yl)-1H-pyrazol-5-yl)-2-fluoro-6-hydroxyphenyl)-1,2,5-thiadiazolidin-3-one 1,1-dioxide]
IC50 (PTPN2 (i.e., TC-PTP)): ≤ 1 µM
IC50 (PTPN1 (i.e., PTP1B)): ≤ 1 µM

O=C1CN(c2c(O)ccc(-c3cnn(C4CCC(C(F)(F)F)CC4)c3)c2F)S(=O)(=O)N1 (stereo not shown) [Compound 341, 5-(2-fluoro-6-hydroxy-3-(1-(4-(trifluoromethyl)cyclohexyl)-1H-pyrazol-4-yl)phenyl)-1,2,5-thiadiazolidin-3-one 1,1-dioxide]
IC50 (PTPN2 (i.e., TC-PTP)): ≤ 1 µM
IC50 (PTPN1 (i.e., PTP1B)): ≤ 1 µM

From patent publication US20240398828A1, “HETERO-ATOM CONTAINING COMPOUNDS AND USES THEREOF” (Kumquat Biosciences Inc., priority 2021, published 2024)
